No end group written: not given here.

Holding throughout (experiment): biochemical
The target in one assay is DR1 (DRB1*0101) (Homo sapiens, UniProt P01903+P01911, A100R/D57E/F55L/F60I/F76Y/I96L/L162R/M171V/P40L/Q125E/R42F/V115G/Y59C). It is filed as binding.
The next assay addresses DR4w4 (DRB1*0401) (Homo sapiens, UniProt P01903+P01911, A100K/A169T/F76Y/I96L/K127E/L162R/M171V/N62H/P40V/Q125Y/R42H/S133A/S149N/S66Y/V115G/V209L/W38E). The assay is classed as binding.
In a further assay the target is DR7 (DRB1*0701) (Homo sapiens, UniProt P01903+P01911, A100R/A102G/A103Q/D57E/D86V/E43K/F76Y/K127E/L162R/M171V/P40G/Q125H/Q99D/R33Q/R42Y/R54Q/S133A/S66F/T210M/V115G/Y107V/Y59L/Y89S). It is filed as binding.
In the next assay the target is DRB1*0301 (Homo sapiens, UniProt P01903+P01911, A100K/A102G/A103R/A169T/F55Y/I96L/K41T/L162R/M171V/P40S/Q125H/Q178H/Q39Y/R42S/S66N/T106N/T262R/W38E/Y61H). The assay is classed as binding.
Sequence of DRB1*0301 (P01903 26-254 limits assumed, other chains not shown): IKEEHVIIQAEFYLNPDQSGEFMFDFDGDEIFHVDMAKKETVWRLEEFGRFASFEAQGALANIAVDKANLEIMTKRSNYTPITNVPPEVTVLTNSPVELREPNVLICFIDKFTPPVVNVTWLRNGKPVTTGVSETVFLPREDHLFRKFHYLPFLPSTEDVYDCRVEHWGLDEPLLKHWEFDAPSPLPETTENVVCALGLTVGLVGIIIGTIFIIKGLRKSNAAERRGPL
For a further assay, the target named is DRB1*0405 (Homo sapiens, UniProt P01903+P01911, A100R/A169T/D86S/F76Y/I96L/K127E/L162R/M171V/N62H/P40V/Q125Y/R42H/S133A/S149N/S66Y/V115G/V209L/W38E). It is filed as binding.
For a further assay, the target named is DRB1*0802 (Homo sapiens, UniProt P01903+P01911, A100R/A103L/A169T/F76Y/H45Y/I96F/K41T/L162R/M171V/P40S/Q125H/Q178H/Q39Y/Q99D/R218S/R42G/S66Y/V115G/W38E). The assay is classed as binding.
Another assay has as its target DRB1*0901 (Homo sapiens, UniProt P01903+P01911, A100R/A103E/D57H/D86V/F55Y/F60I/F76Y/I96F/K127E/L162R/M171V/P40D/Q125H/Q99R/R33Q/R42F/S133A/S66N/T210M/V115G/W38K/Y107V/Y59G/Y89S). It is filed as binding.
Another assay concerns the target DRB1*1501 (Homo sapiens, UniProt P01903+P01911). It is filed as binding.
A further assay deals with DRB3*0101 (Homo sapiens, UniProt P01903+P79483). The assay is classed as binding.
Another assay deals with DRB1*1101 (Homo sapiens, UniProt P01903+P01911, A100R/A169T/A87E/I96F/K41T/L162R/M171V/P40S/Q125H/Q178H/Q39Y/Q99D/R42S/S66Y/T262R/V115G/W38E). The following applies: Binding affinity DRB1 *1101.
Sequence of DRB1*1101 (P01903 26-254 limits assumed, other chains not shown): as above
The target in a further assay is DRB4*0101 (Homo sapiens, UniProt P01903+P13762, G164S). It is filed as binding.
The next assay deals with DRB5*0101 (Homo sapiens, UniProt P01903+Q30154). The following applies: Binding affinity DRB5 *0101.
The target of the next assay is DRB1*1302 (Homo sapiens, UniProt P01903+P01911, A100E/A169T/K41T/L162R/M171V/P40S/Q125H/Q178H/Q39Y/Q99D/R42S/S66N/T262R/V115G/W38E/Y61H). The assay is classed as binding.
Sequence of DRB1*1302 (P01903 26-254 limits assumed, other chains not shown): as above

One may read the IC50 as the concentration that gives 50% inhibition. Higher therefore signals weaker potency in that assay. On to SDEISFAGIVTKLPT [Peptide 1601.45], for which the IC50 against DR1 (DRB1*0101) was 0.513 µM; at DR4w4 (DRB1*0401), 8.79 µM; against DR7 (DRB1*0701), 0.901 µM; against DRB1*0301, 1.66 µM; against DRB1*0405 it was 2.35 µM; on DRB1*0802 it was 10.7 µM. Also, the half-inhibitory concentration (IC50) at DRB1*0901 was 1.28 µM; on DRB1*1501, 0.791 µM; against DRB3*0101 it was greater than 20 µM; on DRB1*1101, 12.2 µM.

Consider TYISTSQRDDFLNTV [Peptide 1601.27], for which the half-inhibitory concentration (IC50) at DR1 (DRB1*0101) is greater than 20 µM; on DR4w4 (DRB1*0401) it was 16.3 µM; against DRB1*0301 it was 0.152 µM; on DRB1*0405 it was 5.2 µM; at DRB1*0802, greater than 20 µM; at DRB1*0901, 13 µM. Moreover, the IC50 at DRB1*1501 was greater than 20 µM; at DRB3*0101 it was 6.62 µM; at DRB4*0101, 0.48 µM; at DRB1*1101, greater than 20 µM; on DRB5*0101 it was greater than 20 µM.

As to RNTFLDVVTIPNSVQ [Peptide 1601.39], the IC50 at DR1 (DRB1*0101) came out at 0.555 µM; on DR7 (DRB1*0701) it was 0.27 µM; against DRB1*0301, 6.86 µM; at DRB1*0405 it was 0.326 µM; against DRB1*0802 it was 0.776 µM; against DRB1*0901, 5.87 µM. The half-inhibitory concentration (IC50) was 17 µM against DRB1*1501, 12 µM against DRB3*0101, 0.371 µM on DRB1*1101 and greater than 20 µM on DRB5*0101.

On to NCNSNTTPIVHLKGD [Peptide 1601.08], for which the IC50 is 11.5 µM on DR1 (DRB1*0101); 3.11 µM against DR4w4 (DRB1*0401); greater than 20 µM against DRB1*0301; greater than 20 µM against DRB1*0405; greater than 20 µM on DRB1*0802; 3.14 µM against DRB1*0901. Also, the IC50 against DRB1*1501 is greater than 20 µM; at DRB3*0101, greater than 20 µM; at DRB4*0101, 2.64 µM; on DRB1*1101 it was greater than 20 µM; on DRB5*0101 it was greater than 20 µM.

With `CSCC[C@H](NC(=O)[C@H](CS)NC(=O)[C@H](CC(N)=O)NC(=O)[C@H](CC(=O)O)NC(=O)[C@H](CCCCN)NC(=O)[C@H](CC(N)=O)NC(=O)CN)C(=O)N[C@H](C(=O)N[C@@H](Cc1ccc(O)cc1)C(=O)N[C@H](C(=O)N[C@@H](C)C(=O)N[C@@H](Cc1c[nH]c2ccccc12)C(=O)N[C@@H](CC(=O)O)C(=O)N[C@@H](CO)C(=O)N[C@H](C(=O)O)C(C)C)C(C)C)[C@@H](C)O` [Peptide 1601.09], the 50% inhibitory concentration (IC50) against DR1 (DRB1*0101) is 2.23 µM; against DR4w4 (DRB1*0401) it was 2.26 µM; against DR7 (DRB1*0701), 4.39 µM; on DRB1*0301 it was 8.83 µM; at DRB1*0802, 11.5 µM; against DRB1*0901, greater than 20 µM. The IC50 against DRB1*1302 is greater than 20 µM; at DRB1*1501, 0.461 µM; on DRB3*0101 it was greater than 20 µM; against DRB4*0101, 0.041 µM; at DRB1*1101, greater than 20 µM; at DRB5*0101, greater than 20 µM.

As for QMMLETLNNTEYKNE [Peptide 1601.22], the half-inhibitory concentration (IC50) is greater than 20 µM against DR1 (DRB1*0101); greater than 20 µM against DR7 (DRB1*0701); 9.64 µM against DRB1*0301; 0.063 µM against DRB1*0405; greater than 20 µM on DRB1*0802; greater than 20 µM against DRB1*0901. The IC50 against DRB1*1302 was 14.7 µM; at DRB1*1501, greater than 20 µM; at DRB3*0101 it was greater than 20 µM; against DRB4*0101, 0.555 µM; at DRB1*1101, greater than 20 µM; on DRB5*0101 it was greater than 20 µM.

For the molecule STSDDTVSATQIVRQ [Peptide 1601.31], the IC50 on DR1 (DRB1*0101) was 18.1 µM; against DR4w4 (DRB1*0401), 0.558 µM; on DR7 (DRB1*0701), 5.21 µM; on DRB1*0301 it was 3.74 µM; on DRB1*0405 it was greater than 20 µM; at DRB1*0802, greater than 20 µM. Further, the IC50 at DRB1*0901, against DRB1*1302, at DRB1*1501, at DRB3*0101, at DRB1*1101 and on DRB5*0101 was greater than 20 µM each time.

Turning to `CC(C)[C@H](NC(=O)[C@H](CCC(=O)O)NC(=O)[C@H](Cc1c[nH]c2ccccc12)NC(=O)[C@@H](NC(=O)CNC(=O)[C@@H](NC(=O)[C@H](CC(N)=O)NC(=O)CNC(=O)[C@H](Cc1ccc(O)cc1)NC(=O)[C@H](CCCCN)NC(=O)[C@@H](N)CCC(=O)O)[C@@H](C)O)[C@@H](C)O)C(=O)N[C@@H](Cc1c[nH]cn1)C(=O)N[C@@H](Cc1ccccc1)C(=O)NCC(=O)N[C@@H](CC(N)=O)C(=O)O` [Peptide 1601.11], the IC50 was 0.505 µM against DR1 (DRB1*0101); 0.091 µM against DR7 (DRB1*0701); greater than 20 µM at DRB1*0301; 14.7 µM against DRB1*0405; greater than 20 µM on DRB1*0802; 2.49 µM against DRB1*0901. The IC50 against DRB1*1302, on DRB1*1501, on DRB3*0101, against DRB4*0101, at DRB1*1101 and at DRB5*0101 was greater than 20 µM each time.

Take SNEVSSPEIIRQHLA [Peptide 1601.06]: the IC50 against DR1 (DRB1*0101) is greater than 20 µM; against DR4w4 (DRB1*0401) it was greater than 20 µM; against DR7 (DRB1*0701), 8.61 µM; against DRB1*0301, 4.79 µM; on DRB1*0405 it was greater than 20 µM; on DRB1*0802, greater than 20 µM. The IC50 on DRB1*1501 was 5.36 µM; on DRB3*0101, greater than 20 µM; against DRB4*0101, 0.013 µM; on DRB1*1101 it was greater than 20 µM; at DRB5*0101, greater than 20 µM.

On to DFLNTVKIPNTVSVS [Peptide 1601.28], for which the IC50 was 0.777 µM at DR1 (DRB1*0101); 0.5 µM on DR4w4 (DRB1*0401); 0.469 µM on DR7 (DRB1*0701); greater than 20 µM at DRB1*0301; 11.8 µM on DRB1*0405; 2.09 µM against DRB1*0802. The IC50 was 0.373 µM on DRB1*0901; 0.131 µM at DRB1*1302; 2.19 µM against DRB1*1501; greater than 20 µM against DRB3*0101; 0.277 µM on DRB1*1101; greater than 20 µM on DRB5*0101.

As to YENDSTDLRDHIDYW [Peptide 1601.01], the IC50 was greater than 20 µM on DR1 (DRB1*0101); greater than 20 µM against DR4w4 (DRB1*0401); greater than 20 µM against DR7 (DRB1*0701); 15.8 µM at DRB1*0301; greater than 20 µM at DRB1*0405; greater than 20 µM on DRB1*0802. The IC50 against DRB1*0901 was greater than 20 µM; against DRB1*1302, greater than 20 µM; against DRB1*1501 it was greater than 20 µM; at DRB3*0101, 8.55 µM; at DRB1*1101, greater than 20 µM; on DRB5*0101 it was greater than 20 µM.

`CC[C@H](C)[C@H](NC(=O)[C@@H](NC(=O)[C@@H]1CCCN1C(=O)[C@@H](NC(=O)[C@@H](NC(=O)[C@H](CC(N)=O)NC(=O)CNC(=O)[C@H](CO)NC(=O)[C@H](CS)NC(=O)[C@@H](NC(=O)[C@H](CCCCN)NC(=O)[C@@H](N)CCCNC(=N)N)C(C)C)[C@@H](C)O)[C@@H](C)O)[C@@H](C)CC)C(=O)N[C@@H](Cc1c[nH]cn1)C(=O)N[C@@H](CC(C)C)C(=O)N[C@@H](CCCCN)C(=O)O` [Peptide 1601.43]: the concentration for half-maximal inhibition (IC50) was 1.31 µM against DR1 (DRB1*0101); greater than 20 µM on DRB1*0301; 9.21 µM at DRB1*0405; 8.06 µM on DRB1*0802; 1.12 µM at DRB1*0901; 0.011 µM at DRB1*1302. The half-maximal inhibitory concentration (IC50) is 8.05 µM at DRB1*1501; greater than 20 µM at DRB3*0101; 2.1 µM against DRB4*0101; greater than 20 µM at DRB1*1101; 18 µM at DRB5*0101.

Values taken from patent publication US9340577B2, “HLA binding motifs and peptides and their uses” (priority 1992, dated 2016).
